Bridge positions count the residues as written; N and C are the ends. Square brackets hold non-standard residues; d marks the D form. Peptide text beside a SMILES is read from it. R8 = C=CCCCCCC[C@@](C)(N)C(=O)O; S5 = C=CCCC[C@](C)(N)C(=O)O; Nle = CCCC[C@H](N)C(=O)O
Legend:
[1] = target: RNF31 UBA domain (Homo sapiens, UniProt Q96EP0); experiment: biochemical
[2] = target: T1, PD-L1:PD-1 (Homo sapiens, UniProt Q9NZQ7); settings: SPR ABA competition, 10 μM compound, 400 nM PD-1
Target sequence in this assay (Q9NZQ7 18-239): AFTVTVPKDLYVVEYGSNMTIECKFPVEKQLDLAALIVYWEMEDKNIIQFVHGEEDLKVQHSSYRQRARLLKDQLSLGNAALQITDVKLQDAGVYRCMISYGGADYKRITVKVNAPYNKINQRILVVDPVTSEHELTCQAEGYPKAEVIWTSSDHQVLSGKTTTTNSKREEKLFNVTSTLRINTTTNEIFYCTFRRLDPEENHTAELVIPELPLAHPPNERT

[3] = target: T1, PD-L1:PD-1; settings: competition ELISA; n = 2
Target sequence in this assay (Q9NZQ7 19-238 limits assumed): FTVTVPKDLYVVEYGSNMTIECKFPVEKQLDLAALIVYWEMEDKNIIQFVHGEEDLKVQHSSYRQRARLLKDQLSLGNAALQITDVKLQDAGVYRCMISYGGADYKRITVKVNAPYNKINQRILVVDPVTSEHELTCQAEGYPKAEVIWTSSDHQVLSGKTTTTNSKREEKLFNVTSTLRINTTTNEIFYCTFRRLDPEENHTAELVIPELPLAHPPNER

[4] = target: PD-L1 (Homo sapiens, UniProt Q9NZQ7); settings: TR-FRET; n = 3 for FP peptides, n = 2 for BMS-1001
[5] = tested on: Expi293 cells; settings: percentage of Helicons in cells after treatment and wash; Expi293 cells 1x10^6 cells/mL, 22 hours, 37°C; washed twice with DPBS; MS quantitation, single-point calibration; n=2, mean ± SD
[6] = tested on: Expi293 cells; settings: luminescence at Tfinal (22 hours) divided by Tinitial, measure of ATP levels, reflective of cell health

RNF31 UBA domain, sequence (Q96EP0 480-639): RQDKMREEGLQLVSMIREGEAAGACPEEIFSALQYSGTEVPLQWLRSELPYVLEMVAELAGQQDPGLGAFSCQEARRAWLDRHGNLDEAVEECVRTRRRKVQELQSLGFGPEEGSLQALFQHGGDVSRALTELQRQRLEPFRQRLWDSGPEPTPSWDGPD
PD-L1, sequence (Q9NZQ7 18-239): as the sequence (Q9NZQ7 18-239) above

Compound	Helicon in cells ± SD (%) [5] [%]	CellTiter-Glo fold change ± SD [6]	also measured
CC[C@H](C)[C@H](NC(=O)[C@H](C)NC(=O)[C@@H]1CSCC(=O)Nc2ccc(cc2)NC(=O)CSC[C@H](NC(=O)[C@H](CCCNC(=N)N)NC(=O)[C@H](CCC(N)=O)NC(=O)[C@H](CCSC)NC(=O)[C@H](C)NC(=O)[C@@H]2CCCN2C(=O)[C@H](CC(=O)O)NC(C)=O)C(=O)N[C@@H](Cc2ccccc2)C(=O)N[C@@H](CO)C(=O)N[C@@H](C)C(=O)N[C@@H](C)C(=O)N[C@@H](C(C)C)C(=O)N[C@@H](Cc2ccc(O)cc2)C(=O)N1)C(=O)N[C@@H](CO)C(N)=O [FP06655]	–	–	koff ([1]; read-out: RNF31 UBA Binding koff): 0.052 s⁻¹; kon ([1]; read-out: RNF31 UBA Binding kon): 1.4e+06 M⁻¹ s⁻¹
Cc1cc(CN[C@H](CO)C(=O)O)c(OCc2cccc(C#N)c2)cc1OCc1cccc(-c2ccc3c(c2)OCCO3)c1C [BMS-1001]	–	–	Competition with PD-1 for binding to PD-L1 [2]: compete more potently; Inhibition of PD-L1:PD-1 binding [3]: inhibits PD-L1:PD-1 binding; PD-L1 dimerization in solution [4]: clear evidence of PD-L1 dimerization
CCCC[C@H](NC(=O)[C@@H](NC(C)=O)C(C)C)C(=O)N[C@@H](CCC(=O)O)C(=O)N[C@]1(C)CCCCCCC=CCCC[C@@](C)(C(=O)N[C@@H](Cc2c[nH]cn2)C(=O)N[C@@H](Cc2ccc(O)cc2)C(=O)N[C@H](C(N)=O)C(C)C)NC(=O)[C@H]([C@@H](C)CC)NC(=O)[C@H](Cc2ccccc2)NC(=O)[C@H](C)NC(=O)[C@H](C)NC(=O)[C@H](CCC(N)=O)NC(=O)[C@H](Cc2ccc(O)cc2)NC1=O [FP07868] (Ac-V[Nle]E[R8]YQAAFI[S5]HYV-NH2; staple 4-11)	10.3 ± 1.4	1.2 ± 0.10	–
CC(=O)N[C@@H](CC(C)C)C(=O)N[C@H](C(=O)N[C@@H](Cc1ccccc1)C(=O)N[C@]1(C)CCCCCCC=CCCC[C@@](C)(C(=O)N[C@@H](CO)C(=O)N[C@@H](C)C(=O)N[C@@H](C)C(N)=O)NC(=O)[C@H](CC2CCC2)NC(=O)[C@H](CCC(N)=O)NC(=O)[C@H](C)NC(=O)[C@H](Cc2c[nH]c3ccccc23)NC(=O)[C@H](Cc2ccc(O)cc2)NC(=O)[C@H](CCC(=O)O)NC1=O)[C@@H](C)O [FP01413, reference compound]	3.7 ± 0.4	1.2 ± 0.07	–
CCCC[C@H](NC(=O)[C@@H](NC(C)=O)C(C)C)C(=O)N[C@@H](CCC(N)=O)C(=O)N[C@]1(C)CCCCCCC=CCCC[C@@](C)(C(=O)N[C@@H](Cc2c[nH]cn2)C(=O)N[C@@H](Cc2ccc(O)cc2)C(=O)N[C@H](C(N)=O)C(C)C)NC(=O)[C@H]([C@@H](C)CC)NC(=O)[C@H](Cc2ccccc2)NC(=O)[C@H](C)NC(=O)[C@H](C)NC(=O)[C@H](CCC(=O)O)NC(=O)[C@H](Cc2ccc(O)cc2)NC1=O [FP07864] (Ac-V[Nle]Q[R8]YEAAFI[S5]HYV-NH2; staple 4-11)	18.5 ± 11.4	1.1 ± 0.05	–

— paper PMC9907135 (Proceedings of the National Academy of Sciences of the …, 2022)
